# Earlier results in patent US7994325B2, “CGRP receptor antagonists” (Merck Sharp & Dohme Corp., priority 2005, dated 2011).
# Ends that are not written are not given here.
# Assays:
# CGRP receptors [1] = settings: rats, prior administration (Williamson et al. 1997)
# CGRP receptors [2] = settings: rat (Escott et al. 1995)
# CGRP receptors [3] = settings: marmoset (Doods et al. 2000)
# CGRP receptors [4] = settings: intravenously administered (Olesen et al. 2004)
Molecule,effect on increase in diameter of the middle meningeal artery (CGRP receptors [1]),effect on increased facial blood flow (CGRP receptors [2]),effect on increase in facial blood flow (CGRP receptors [3]),clinical efficacy and safety in migraine (CGRP receptors [4])
"CGRP(8-37): ""a fragment of CGRP that lacks seven N-terminal amino acid residues, is a selective antagonist of CGRP1""; ""a peptide CGRP antagonist"" (VTHRLAGLLSRSGGVVKNNFVPTNVGSKAF; ends and bridges not checked; UniProt P06881 90-119, looked up, fragment)",blocked,inhibited,–,–
NCCCC[C@H](NC(=O)[C@@H](Cc1cc(Br)c(O)c(Br)c1)NC(=O)N1CCC(N2Cc3ccccc3NC2=O)CC1)C(=O)N1CCN(c2ccncc2)CC1 [BIBN4096BS],–,–,blocked,safe and effective acute treatment for migraine
